According to patent publication US20090036497A1, “ECTOPARASITE CONTROL METHOD” (priority 2007, published 2009):

How the values were obtained:
adult H. irritans exigua = assay: Adult H. irritans exigua feeding assay (blood meal assay); assay type: in vivo
Description: Adult H. irritans exigua Feeding Assay
A blood meal assay was used to determine the LC50 for test compound (3-bromo-1-(3-chloro-2-pyridinyl)-N-[4-cyano-2-methyl-6-[(methylamino)carbonyl]phenyl]-1H-pyrazole-5-carboxamide) on adult H.irritans exigua. Six (6) serial dilutions of the test compound were prepared in decoagulated bovine blood that was stored refrigerated. Ivermectin was included as a positive control compound and a negative control was included in each assay. Flies were collected with a net immediately before each assay from yarded commercial cattle. About 100 adults were introduced into a mesh cage (30×30×30 cm) containing one cotton gauze (4×4×1 cm) soaked in one blood/insecticide concentration. There were 3 replicate cages of each blood/insecticide concentration. Blood gauzes were replaced every 12 hours. The untreated control cages received untreated decoagulated blood. All cages were labelled and stored for 72 hours at 25-27° C. in the dark at ambient relative humidity (70-85%). […] Data was subjected to log-probit analysis to determine the LC50 if there is a dose response in the assay.

Cat Fleas (C. felis) = assay: In vivo evaluation against artificial infestations with cat fleas on dogs; conditions: for Flea efficacy compared to the untreated control: topical line-on (test compound 60 mg/kg in NMP); for Flea efficacy (%) compared to the untreated control: topical line-on, test compound 60 mg/kg in NMP
Source text: (§1) In vivo evaluation Against Artificial Infestations With Cat Fleas (C. felis) and Brown Dog Ticks (R. sanguineus) on Dogs
(§2) Twenty five dogs were used in this study that investigated the efficacy of test compound (3-bromo-1-(3-chloro-2-pyridinyl)-N-[4-cyano-2-methyl-6-[(methylamino)carbonyl]phenyl]-1H-pyrazole-5-carboxamide) against fleas and ticks. Two groups (one treated and one untreated) of five dogs were used to evaluate the flea efficacy whilst two groups of five dogs (one treated and one untreated) were used to investigate the tick efficacy. The dogs in the respective groups were infested weekly with 40 unfed adult ticks and 100 cat fleas. One group was treated with ADVANTIX and served as a positive control. The dogs in this group were infested simultaneously with fleas and ticks. Test compound was formulated in NMP. The treatment was applied topically via syringe on the dorsal line of the animals as a line-on at 60 mg/kg dose rate. The efficacy of the compound was assessed by weekly tick and flea counts. The weekly counts generated in the treated groups were compared to the positive and negative untreated control (UTC) group counts to evaluate efficacy of Test compound.

[1] = test system: Brown Dog Ticks (R. sanguineus); assay: In vivo evaluation against artificial infestations with brown dog ticks on dogs; conditions: for Tick efficacy (%) compared to the untreated control: topical line-on, test compound 60 mg/kg in NMP
Source text: as §1, §2

[2] = test system: cat flea (Ctenocephalides felis Bouche); assay: In vivo evaluation against artificial infestations with cat fleas on mice; conditions: CD-1 mouse, 10 mg/kg oral in propylene glycol/glycerol formal (60:40), fleas applied 2 hours after dosing, evaluated 48 hours after flea application
Description: In vivo Evaluation Against Artificial Infestations With Cat Fleas (C. felis) on Mice
For evaluating control of the cat flea (Ctenocephalides felis Bouche), a CD-1® mouse (about 30 g, male, obtained from Charles River Laboratories, Wilmington, Mass.) was orally dosed with test compound in an amount of 10 mg/kg solubilized in propylene glycol/glycerol formal (60:40). Two hours after oral administration of the test compound, approximately 8 to 16 adult fleas were applied to each mouse. The fleas were then evaluated for mortality 48 hours after flea application to the mouse. 3-bromo-1-(3-chloro-2-pyridinyl)-N-[4-cyano-2-methyl-6-[(methylamino)carbonyl]phenyl]-1H-pyrazole-5-carboxamide caused 45% mortality.

[3] = 200 ppb in bovine blood, exposure time 7 hr
[4] = 200 ppb in bovine blood, exposure time 17 hr
[5] = 200 ppb in bovine blood, exposure time 24 hr
[6] = 400 ppb in bovine blood, exposure time 7 hr
[7] = 400 ppb in bovine blood, exposure time 17 hr
[8] = 400 ppb in bovine blood, exposure time 24 hr
[9] = 600 ppb in bovine blood, exposure time 7 hr
[10] = 600 ppb in bovine blood, exposure time 17 hr
[11] = 600 ppb in bovine blood, exposure time 24 hr

Q: Which “% Adult mortality” value (adult H. irritans exigua; [3]) does the source give for `CNC(=O)c1cc(C#N)cc(C)c1NC(=O)c1cc(Br)nn1-c1ncccc1Cl` [Test compound, 3-bromo-1-(3-chloro-2-pyridinyl)-N-[4-cyano-2-methyl-6-[(methylamino)carbonyl]phenyl]-1H-pyrazole-5-carboxamide] here?
A: 77.3%

Q: And the “% Adult mortality” value (adult H. irritans exigua; [4])?
A: 78.8%

Q: And the “% Adult mortality” value (adult H. irritans exigua; [5])?
A: 80.3%

Q: And the “% Adult mortality” value (adult H. irritans exigua; [6])?
A: 78.8%

Q: What about the “% Adult mortality” value (adult H. irritans exigua; [7]) of the same molecule?
A: 89.8%

Q: What about the “% Adult mortality” value (adult H. irritans exigua; [8]) of the same molecule?
A: 94.9%

Q: And the “% Adult mortality” value (adult H. irritans exigua; [9])?
A: 80.5%

Q: And the “% Adult mortality” value (adult H. irritans exigua; [10])?
A: 94.7%

Q: And the “% Adult mortality” value (adult H. irritans exigua; [11])?
A: 96.5%

Q: And the “Flea efficacy compared to the untreated control” value (Cat Fleas (C. felis); 2 days post-treatment)?
A: over 99.5%

Q: What about the “Flea efficacy compared to the untreated control” value (Cat Fleas (C. felis); 9 days post-treatment) of the same molecule?
A: over 99.5%

Q: What about the “Flea efficacy compared to the untreated control” value (Cat Fleas (C. felis); 16 days post-treatment) of the same molecule?
A: over 99.5%

Q: What about the “Flea efficacy compared to the untreated control” value (Cat Fleas (C. felis); 30 days post-treatment) of the same molecule?
A: 97.3%

Q: What about the “Flea efficacy (%) compared to the untreated control” value (from here on “Flea efficacy (%)”) (Cat Fleas (C. felis); Day 2) of the same molecule?
A: 99.6%

Q: What about the “Flea efficacy (%)” value (Cat Fleas (C. felis); Day 9) of the same molecule?
A: 99.7%

Q: And the “Flea efficacy (%)” value (Cat Fleas (C. felis); Day 16)?
A: 99.7%

Q: And the “Flea efficacy (%)” value (Cat Fleas (C. felis); Day 23)?
A: 98.7%

Q: What about the “Flea efficacy (%)” value (Cat Fleas (C. felis); Day 29) of the same molecule?
A: 97.3%

Q: What about the “Tick efficacy higher than the ADVANTIX” value ([1]; 48 hours after treatment, difference to ADVANTIX) of the same molecule?
A: 30%

Q: And the “Tick efficacy compared to the negative control” value ([1]; topical line-on (test compound 60 mg/kg in NMP), 48 hours after treatment)?
A: 74%

Q: And the “Tick efficacy compared to the untreated control” value ([1]; topical line-on (test compound 60 mg/kg in NMP), 9 days post-treatment)?
A: over 94.9%

Q: And the “Tick efficacy compared to the untreated control” value ([1]; topical line-on (test compound 60 mg/kg in NMP), 16 days post-treatment)?
A: 90.5%

Q: What about the “Tick efficacy compared to the untreated control” value ([1]; topical line-on (test compound 60 mg/kg in NMP), 23 days post-treatment) of the same molecule?
A: 90.6%

Q: What about the “Tick efficacy compared to the untreated control” value ([1]; topical line-on (test compound 60 mg/kg in NMP), 30 days post treatment) of the same molecule?
A: 86.2%

Q: And the “Tick efficacy (%) compared to the untreated control” value (“Tick efficacy (%)” below) ([1]; Day 2)?
A: 74.0%

Q: And the “Tick efficacy (%)” value ([1]; Day 9)?
A: 94.9%

Q: What about the “Tick efficacy (%)” value ([1]; Day 16) of the same molecule?
A: 95.0%

Q: What about the “Tick efficacy (%)” value ([1]; Day 23) of the same molecule?
A: 90.6%

Q: What about the “Tick efficacy (%)” value ([1]; Day 29) of the same molecule?
A: 86.2%

Q: What about the flea mortality [2] of the same molecule?
A: 45%

Q: For “22,23-dihydroavermectin B1 [Ivermectin, reference compound]”, which “% Adult mortality” value (adult H. irritans exigua; [3]) is on record?
A: 78.5%

Q: What about the “% Adult mortality” value (adult H. irritans exigua; [4]) of the same molecule?
A: 91.8%

Q: What about the “% Adult mortality” value (adult H. irritans exigua; [5]) of the same molecule?
A: 93.1%

Q: And the “% Adult mortality” value (adult H. irritans exigua; [6])?
A: 80.1%

Q: And the “% Adult mortality” value (adult H. irritans exigua; [7])?
A: 94.2%

Q: And the “% Adult mortality” value (adult H. irritans exigua; [8])?
A: 98.0%

Q: And the “% Adult mortality” value (adult H. irritans exigua; [9])?
A: 86.0%

Q: And the “% Adult mortality” value (adult H. irritans exigua; [10])?
A: 95.5%

Q: And the “% Adult mortality” value (adult H. irritans exigua; [11])?
A: 100.0%
